Reference: US4110321A, “Synthetic tridecapeptide [Gln^4 ]-neurotensin having hormonal activity” (priority 1977, dated 1978)
Where no end group is shown, it is not given here.

How the values were obtained:
rats [1] = assay: Hypotensive Assay; type: in vivo, rat; settings: rats anesthetized with pentobarbital; 50 picomoles/100 g body weight via tail vein
Protocol: Systemic blood pressure was measured with a Hewlett-Packard recorder and pressure transducer (preamplifier 8805 B, recorder 7782 A, transducer 267 BC) following cannulations of the carotid artery in rats weighing 200-250 g and anesthetized with pentobarbital (50 mg/kg). The test samples were dissolved in 0.85% saline and administered via a tail vein.

[2] = tested on: canine fundic, antral and intestinal pouches; assay: Spontaneous motor activity in isolated canine fundic, antral and intestinal pouches; type: in vivo, dog; settings: intravenous infusion for 30 min
Protocol: The action of [Gln^4 ]-neurotensin was tested on the spontaneous motor activity in isolated canine fundic, antral and intestinal pouches. All of these pouches had been prepared more than 6 months prior to the testing. […] The gastro-intestinal tract appears to be the principal target organ for [Gln^4 ]-neurotensin, and is a basis for clinical use of [Gln^4 ]-neurotensin in patients having diseases of gastroenterology (S. Andersson, M.D. S. Rosell M.D., U. Hjelmquist M.D., D. Chang Ph.D. and K. Folkers Ph.D., Gastroenterology, in press).

guinea pig ileum = assay: Contraction of Guinea Pig Ileum; settings: ileum segments in Tyrode's solution at 37°
Protocol: Freshly dissected segments of guinea pig ileum were suspended in a 40 ml bath which was maintained at 37° and serated with a mixture of O2 --CO2 (95:5), and containing Tyrode's solution.

[3] = Simulation of isolation steps: stability in acetone 1 N HCl at 37° C.; type: physicochemical
Protocol: Toward simulation of these isolation steps, both in terms of temperature and the concentration of hydrochloric acid, 2 mg of synthetic [Gln^4 ]-neurotensin was dissolved in a mixture of acetone 1 N HCl (100:3 v/v), and this solution was maintained at 37° C. for 12 hours which can be presumed to be less than the time of the original large scale operation at the New England Enzyme Center in Boston. An aliquot of the solution was taken for thin layer electrophoresis on cellulose plates (160 microns, Eastman Chromatographic sheet) at 500 volts in pyridine-acetate buffer, pH 6.5. The major spot on the plate corresponded to [Gln^4 ]-neurotensin.However, a new and minor spot moving toward the cathode was present which had the same TLC retention time as neurotensin. The solution was allowed to stand overnight, and it was then maintained again at 37° for a second 12-hr period. […] The minor spot had increased during the second 12-hr period. The remaining solution was concentrated under reduced pressure at room temperature to remove acetone, and the aqueous residue was then lyophilized. The residual white powder was subjected to thin layer electrophoresis on cellulose plates and pyridine acetate buffer at pH 6.5 and at 500 volts. […] The Rf values were identical with those of an authentic specimen of [Gln^4 ]-neurotensin as follows: Rf^1 0.25; Rf^2 0.89; Rf^3 0.50; Rf^4 0.42; Rf^5 0.21; and Rf^6 0.98.
In the second experiment 10 mg of pure [Gln^4 ]-neurotensin was dissolved in a mixture of acetone 1 N HCl (100:3 v/v), and the solution was maintained at 37° C. for 27 hours to simulate again the steps of isolation which are being critiqued. This time, 3 spots were observed on electrophoretic analysis of an aliquot of the solution which had been maintained at 37° for 27 hrs. Preparative thin layer electrophoresis, extraction, and workup yielded 4.2 mg of recovered [Gln^4 ]-neurotensin and 4.3 mg of neurotensin. The third and much weaker spot was due to only a trace amount of another peptide which presumably resulted from further hydrolysis. […] The fact that in these two experiments, not all of the [Gln^4 ]-neurotensin was converted to neurotensin is relatively unimportant, because these experiments on hydrolysis of the pure [Gln^4 ]-neurotensin only simulates the conditions of processing of 20-45 kg of hypothalamic tissue.

anesthetized dogs = assay: Heart, blood flow, blood glucose and lipolysis in anesthetized dogs; type: in vivo, dog
Text: [Gln^4 ]-neurotensin ([Gln]^4 -NT) has also been studied on the heart and on the blood from in subcutaneous adipose tissue, skin, and small intestine in anesthetized dogs. In addition, its possible action has been investigated on blood glucose concentration and lypolysis in subcutaneous adipose tissue.

rabbit anti-NT serum = assay: Radioimmunoassay; type: binding; settings: I^125 -NT, two rabbit antisera, pH 7.4, 4° C.
Protocol: Two antisera were used in these assays. One has been characterized as being directed solely toward the COOH-terminus, and the other requires most of the molecule.
The radioimmunoassay method used was an equilibrium system carried out at pH 7.4 in 10 × 75 mm disposable flint glass tubes and employing PBS-gel as diluent. […] The mixtures were allowed to stand at 4° C. for 18-24 hours. The "bound" (B) and "free" (F) trace were separated at 4° C. by the rapid addition of 1.0 ml of a 1:4 dilution of a stock suspension of charcoal (2.5%) and dextran T-70 (0.25%) in PBS to each tube. The tubes were immediately centrifuged for 20 min at 2000 rpm (PRJ-Universal), and the supernatant fluids were decanted into new tubes. […] "Damage" was usually 2-4% and using antisera at a final dilution of 1:10,000 gave 50-70% binding. All unknowns were assayed in duplicate at three dilutions so as to span the sensitive portion of the curve. The results were obtained by averaging the concentrations determined at each dilution provided that they agreed within 20%.

rats [4] = assay: Hyperglycemic Assay; type: in vivo, rat; settings: 15 minutes after injection
Protocol: Rats weighing 100-125 g were anesthetized with pentobarbital (50 mg/kg). The test samples were dissolved in 0.85% saline and administered via a tail vein. Each animal was killed by decapitation 15 minutes after injection and plasma glucose levels were measured by the method of Ceriotti and Frank. […] The plasma glucose values are given in mg %.

[5] = 10 mg in acetone 1 N HCl (100:3 v/v), 27 hours

| Molecule | -ΔSystemic Blood Pressure (rats [1]) [mm HG] | dose inducing significant motor inhibition, vagally innervated antral pouches [2] [ng/kg/min] | dose inhibiting motor activity, vagally denervated fundic pouches [2] | Contraction of Guinea Pig Ileum, potency (guinea pig ileum) | recovered [Gln^4 ]-neurotensin ([3]; 2 mg in acetone 1 N HCl (100:3 v/v), two 12-hr periods) | neurotensin formed [3, 5] [mg] | recovered [Gln^4 ]-neurotensin [3, 5] [mg] | stability under the isolation conditions ([3]; acetone 1 N HCl (100:3 v/v)) | action in the peripheral vasculature (anesthetized dogs; anesthetized dogs) | blood glucose concentration (anesthetized dogs; anesthetized dogs) | cardiac action (anesthetized dogs; anesthetized dogs) | action in the peripheral vasculature (anesthetized dogs; anesthetized dogs, listed as [Gln]^4 -NT) | lipid metabolism in adipose tissue (anesthetized dogs; subcutaneous adipose tissue) | % Cross Ractivity (Ab #4, #6) (rabbit anti-NT serum) | Hyperglycemic Assay, plasma glucose (rats [4]; 25 picomoles/100 g body weight via tail vein) [mg %] | Hyperglycemic Assay, plasma glucose (rats [4]; 50 picomoles/100 g body weight via tail vein) [mg %] | Hyperglycemic Assay, plasma glucose (rats [4]; 100 picomoles/100 g body weight via tail vein) [mg %] |
| --- | --- | --- | --- | --- | --- | --- | --- | --- | --- | --- | --- | --- | --- | --- | --- | --- | --- |
| CC[C@H](C)[C@H](NC(=O)[C@H](Cc1ccc(O)cc1)NC(=O)[C@@H]1CCCN1C(=O)[C@H](CCCNC(=N)N)NC(=O)[C@H](CCCNC(=N)N)NC(=O)[C@@H]1CCCN1C(=O)[C@H](CCCCN)NC(=O)[C@H](CC(N)=O)NC(=O)[C@H](CCC(N)=O)NC(=O)[C@H](Cc1ccc(O)cc1)NC(=O)[C@H](CC(C)C)NC(=O)[C@@H]1CCC(=O)N1)C(=O)N[C@@H](CC(C)C)C(=O)O [[Gln^4]-NT] | 42 ± 8 | 6.3 | above 25 ng × kg^-1 × min^-1 | about equivalent potency | About 1 mg | 4.3 | 4.2 | hydrolyzed or converted to neurotensin | delayed vasoconstriction which is prominent is subcutaneous adipose tissue | increased blood glucose concentration | no cardiac action | both vasodilator and vasoconstrictor actions | no evidence of a change in lipid metabolism in adipose tissue | 90-100% | 15±5 | 34±4 | 116 |
| Substance P (RPKPQQFFGLM-NH2; UniProt P20366 58-68, looked up) [another polypeptide extracted from the hypothalamus, reference compound] | – | – | – | – | – | – | – | – | hypotension and pronounced vasodilation and no vasoconstrictor or metabolic actions | – | – | – | – | – | – | – | – |
